{"source": "paper PMC8399019", "about": "“Inhibition of Cysteine Proteases by 6,6′-Dihydroxythiobinupharidine (DTBN) from Nuphar lutea” (Molecules, 2021)", "assay_type_in_all_cases": "biochemical", "key": {"[1]": {"target": "T1, Human Cathepsin B (Homo sapiens, UniProt P07858)", "T1 construct": "purchased Sigma-Aldrich C0150", "assay": "Enzyme inhibition assay, Human Cathepsin B (casein-FITC)", "settings": "triplicates, value (SD)", "experimental": "(§1) Enzyme inhibition assays were performed in triplicates using transparent 96-well plates for Calpain, Trypsin, Papain, Cathepsin L and Cathepsin B (167008; Nunc, Roskilde, Denmark), or black ones for Cathepsin S, (Greiner 96 Polystyrol GRE96fb), according to manufacturers’ instructions. Briefly, a reaction mixture of 100 µL contained: 45µL of enzyme in assay buffer, 5 µL of inhibitor diluted in DMSO. 50 µL substrate prepared in assay buffer according to manufacturers’ instructions. The inhibitor was serially diluted in DMSO to concentrations from 0.0075 µg/µL to 0.0000075 µg/µL. A total of […] DMSO was added to the control sample. The enzyme substrate mix was added last, just before starting the fluorometric measurement. Data were collected for 1.5 h at 60 sec intervals.\n(§2) Papain Latex (cat. No. p3125), Human Cathepsin B (cat.no. C0150), Trypsin and Calpain (cat. No. ab910119) and the substrate, casein-FITC, were obtained from Sigma-Aldrich. The assay was carried out in 0.3 M potassium chloride, 0.1 mM EDTA, and 3 mM DTT pH 6.5. Ex/Em = 485–535 nm. Human Cathepsins S (cat. No. 1183-cy) and L (cat.no. ab174030) and their substrates were Mca-RPKPVE-Nval-WRK (Dnp)-NH2 (ES002) and Ac-FR-AFC, respectively. They were obtained from ABCAM. Assay buffer for Human Cathepsin S was 50 mM NaOAc, 250 mM NaCl, 5 mM DTT pH 4.5. […]"}, "[2]": {"target": "T2, Papain Latex (Carica papaya, UniProt P00784)", "T2 construct": "purchased Sigma-Aldrich p3125", "T2 sequence (P00784 134-345)": "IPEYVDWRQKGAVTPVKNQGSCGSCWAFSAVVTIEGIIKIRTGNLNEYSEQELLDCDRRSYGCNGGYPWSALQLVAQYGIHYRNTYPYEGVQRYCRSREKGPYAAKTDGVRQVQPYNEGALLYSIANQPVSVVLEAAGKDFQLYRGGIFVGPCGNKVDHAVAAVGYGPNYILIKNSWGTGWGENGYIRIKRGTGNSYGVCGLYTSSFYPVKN", "assay": "Enzyme inhibition assay, Papain Latex (casein-FITC)", "experimental": "as §1, §2"}, "[3]": {"target": "T3, Human Cathepsin L (Homo sapiens, UniProt P07711)", "T3 construct": "purchased ABCAM ab174030", "T3 sequence (P07711 114-333)": "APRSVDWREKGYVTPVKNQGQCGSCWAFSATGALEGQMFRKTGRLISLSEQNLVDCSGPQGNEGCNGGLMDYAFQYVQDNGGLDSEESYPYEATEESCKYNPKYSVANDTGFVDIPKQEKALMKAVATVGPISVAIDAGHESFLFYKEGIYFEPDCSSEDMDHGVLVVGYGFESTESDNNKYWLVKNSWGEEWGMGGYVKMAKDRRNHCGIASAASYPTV", "assay": "Enzyme inhibition assay, Human Cathepsin L (fluorometric)", "settings": "triplicates, value (SD)", "experimental": "as §1, §2"}, "[4]": {"target": "T4, Human Cathepsin S (Homo sapiens, UniProt P25774)", "T4 construct": "purchased ABCAM (so in the source) 1183-cy", "T4 sequence (P25774 115-331)": "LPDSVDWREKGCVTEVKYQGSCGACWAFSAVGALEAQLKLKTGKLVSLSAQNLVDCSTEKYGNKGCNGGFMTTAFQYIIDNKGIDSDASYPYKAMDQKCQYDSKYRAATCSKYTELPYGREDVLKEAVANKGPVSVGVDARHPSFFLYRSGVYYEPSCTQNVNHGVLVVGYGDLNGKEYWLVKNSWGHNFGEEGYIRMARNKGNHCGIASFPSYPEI", "assay": "Enzyme inhibition assay, Human Cathepsin S (fluorometric)", "settings": "triplicates, value (SD)", "experimental": "as §1, §2"}}}
{"smiles": "CC1CCC(c2ccoc2)N2C1CCC1(CSC3(CCC4C(C)CCC(c5ccoc5)N4C3O)C1)C2O", "note": "(stereo not shown) [DTBN, 6,6′-dihydroxythiobinupharidine]", "values": [{"measurement": "IC50", "setting": "[1]", "value": 1360, "unit": "µM"}, {"measurement": "IC50", "setting": "[2]", "value": 70.4, "unit": "µM"}, {"measurement": "IC50", "setting": "[3]", "value": 13.2, "unit": "µM"}, {"measurement": "IC50", "setting": "[4]", "value": 3.2, "unit": "µM"}]}
